Results published in the supplement of paper PMC10307832.

Key:
Assay in all cases: relative viability (nuclei count vs DMSO), 5 days (fraction); higher = more cells survive
[1] = compound: C1CNCCC1C2=CC(=NN2)C3=CC=NC=C3 + CC1(C)CCC(c2ccc(Cl)cc2)=C(CN2CCN(c3ccc(C(=O)NS(=O)(=O)c4ccc(N[C@H](CCN5CCOCC5)CSc5ccccc5)c(S(=O)(=O)C(F)(F)F)c4)cc3)CC2)C1 [Navitoclax] (partner 0.5 µM)
Method in brief: (§1)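 Cells from lung cancer lines were seeded into 1536-well plates and, one day later, dosed by pin tool. Treatments were either a single drug or a fixed dose of an anchor drug with five library-drug doses (not always all listed) in √10 steps. After 5 days, nuclei were stained in a one-step fixation (final 0.05% Triton X-100, 1% formaldehyde, 1 ug/ml Hoechst) and counted on 4× images, and relative viability is the treated-to-vehicle nuclei ratio, as the median of duplicate plates.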

[2] = compound: C1CNCCC1C2=CC(=NN2)C3=CC=NC=C3 + CS(=O)(=O)CCNCc1ccc(-c2ccc3ncnc(Nc4ccc(OCc5cccc(F)c5)c(Cl)c4)c3c2)o1 [Lapatinib] (partner 2 µM)
Method in brief: as §1

[3] = compound: C[C@@H](N)c1ccc(C(=O)Nc2ccnc3[nH]ccc23)cc1 + CC(C)C[C@H](NC(=O)[C@H](Cc1ccccc1)NC(=O)c1cnccn1)B(O)O [Bortezomib] (partner 0.002 µM)
Method in brief: as §1

[4] = compound: C[C@@H](N)c1ccc(C(=O)Nc2ccnc3[nH]ccc23)cc1 + C[C@]1(O)C[C@@H](c2nc(-c3ccc4ccc(-c5ccccc5)nc4c3)c3c(N)nccn32)C1 [Linsitinib] (partner 1 µM)
Method in brief: as §1

Row | Cell Line | relative viability ([1]; first compound 0.08 µM) | relative viability ([1]; first compound 0.8 µM) | relative viability ([1]; first compound 2.53 µM) | relative viability ([1]; first compound 8 µM) | relative viability ([2]; first compound 0.08 µM) | relative viability ([2]; first compound 0.8 µM) | relative viability ([2]; first compound 2.53 µM) | relative viability ([2]; first compound 8 µM) | relative viability ([3]; first compound 0.04 µM) | relative viability ([3]; first compound 0.1265 µM) | relative viability ([3]; first compound 0.4 µM) | relative viability ([3]; first compound 1.265 µM) | relative viability ([3]; first compound 4 µM) | relative viability ([4]; first compound 0.04 µM) | relative viability ([4]; first compound 0.1265 µM) | relative viability ([4]; first compound 0.4 µM) | relative viability ([4]; first compound 1.265 µM) | relative viability ([4]; first compound 4 µM)
1 | NCI-H2228 | 0.82 | 1.31 | 0.647 | 0.951 | 0.926 | 1.06 | 1.62 | 1.19 | 1.42 | 1.18 | 1.31 | 0.932 | 1.01 | 0.63 | 0.587 | 0.62 | 0.637 | 0.82
2 | RERF-LC-KJ | 1.05 | 1.01 | 0.76 | 0.94 | 0.784 | 0.835 | 0.843 | 0.85 | 1.19 | 1.21 | 1.2 | 1.24 | 1.12 | 0.896 | 0.871 | 0.998 | 0.944 | 0.861
3 | HCC-366 | 1.02 | 1.12 | 1.07 | 1.08 | 0.864 | 1.13 | 1.04 | 1.04 | 1.16 | 1.08 | 1.15 | – | 1.15 | 0.615 | 0.63 | 0.785 | – | 0.49
4 | SK-LU-1 | 1.25 | 0.913 | 0.85 | 0.88 | 0.944 | 0.799 | 0.849 | 0.814 | 0.886 | 1.54 | 1.01 | 0.753 | 0.743 | 1.09 | 1.1 | 1.19 | 0.956 | 0.637
5 | HCC-44 | 0.931 | 1 | 1.07 | 0.971 | 1.04 | 1.14 | 1.04 | 0.966 | 0.863 | 0.871 | 0.959 | 1.08 | 0.78 | 0.703 | 0.682 | 0.708 | 0.713 | 0.532
6 | A-427 | 0.954 | 0.913 | 1.02 | 0.93 | 1.12 | 1.15 | 0.971 | 0.978 | 0.985 | 1.06 | 0.984 | – | 0.764 | 1.08 | 1.11 | 1.06 | – | 1.12
7 | SW 1573 | 0.778 | 1.2 | 1.19 | 1.09 | 1.03 | 1.21 | 1.17 | 1.25 | 1.08 | 1.01 | 0.939 | 0.968 | 0.7 | 0.763 | 0.873 | 0.82 | 0.861 | 0.622
8 | NCI-H322M | 1.22 | 1.19 | 1.24 | 1.18 | 0.545 | 0.555 | 0.592 | 0.524 | 1.4 | 1.38 | 1.34 | – | 1.72 | 1.02 | 1.12 | 0.93 | – | 1.1
9 | NCI-H2023 | 0.909 | 1.05 | 1.06 | 0.979 | 0.615 | 0.909 | 1.03 | 0.974 | 0.948 | 0.925 | 1.1 | 0.421 | 0.953 | 0.734 | 0.691 | 0.724 | 0.798 | 0.663
10 | NCI-H596 | 1.01 | 1.07 | 1.02 | 0.958 | 1.08 | 1.17 | 1.07 | 0.993 | 1.05 | 0.856 | 1.14 | 1.23 | 1.26 | 1.06 | 1.05 | 1.22 | 1.09 | 1.01
11 | IA-LM | 0.919 | 0.749 | 0.687 | 0.611 | 0.809 | 1.13 | 0.926 | 0.898 | 0.977 | 0.87 | 1.08 | 1.07 | 0.677 | 0.801 | 0.665 | 0.847 | 0.904 | 0.759
12 | NCI-H2405 | 1.03 | 0.823 | 1.5 | 0.849 | 1.12 | 1.01 | 1.12 | 1.16 | 0.895 | 0.973 | 0.903 | 0.274 | 0.491 | – | 1.07 | 0.744 | 0.599 | 0.45
13 | NCI-H460 | 0.888 | 1.38 | 1.17 | 1.29 | 0.68 | 1.4 | 1.11 | 1.03 | 0.996 | 1.15 | 1.11 | 1.17 | 1.09 | 0.857 | 0.729 | 0.823 | 0.954 | 0.599
14 | NCI-H1755 | 0.978 | 0.942 | 1.04 | 0.935 | 1.03 | 0.973 | 1.07 | 1 | 0.929 | 0.949 | 0.966 | 0.906 | 0.677 | 1.03 | 0.977 | 0.947 | 0.86 | 0.716
15 | NCI-H1734 | 0.703 | 1.01 | 0.88 | 0.852 | 0.856 | 1.07 | 1.15 | 1.07 | 0.847 | 0.915 | 0.911 | – | 0.759 | 0.901 | 0.905 | 0.805 | – | 0.708
16 | EPLC-272H | 1.12 | 1.22 | 1.19 | 1.17 | 0.92 | 1 | 1.14 | 1.03 | 1.13 | 0.987 | 1.09 | – | 0.977 | 1.34 | 1.24 | 1.28 | – | 1.13
17 | NCI-H2126 | 0.858 | 0.832 | 0.821 | 0.828 | 0.738 | 0.752 | 0.812 | 0.741 | 1.13 | 1.11 | 1.17 | 1.14 | 1.22 | 0.726 | 0.72 | 0.805 | 0.705 | 0.781
